Measured values: patent publication US10844091B2 (priority 2017, dated 2020)

How the values were obtained:
Assay type in all cases: in vivo
[1] = test system: rat models with Alzheimer's disease; assay: Extrapolation escape (EE) test, scopolamine-induced Alzheimer's disease model; settings: 3 min test; scopolamine 1 mg/kg i.p. 27 days; donepezil 1 mg/kg i.p. 10 days, peptide (LYS) 0.1 mg/kg i.n. 10 days
Method: (§1) White random-bred adult male rats weighing 200-240 g were used. Groups of 7 animals per group were formed. 1st group—control, 2nd—pathology, 3rd—comparator drug, 4th-6th—neuropeptides.
(§2) Scopolamine was administered i.p. to the animals in all groups except for the control at a 1 mg/kg dose daily, once a day for 27 days. From the 28th day on, the animals in groups 2 and 3 were administered the comparator drug and the claimed preparation respectively over the course of 10 days. The drugs were administered daily, once a day.
(§3) The tetrapeptides were administered i.n at a 0.1 mg/kg dose. The animals in the pathology group received 0.9% sodium chloride solution i.n. and i.p. as a placebo.
(§4) The OF and EE tests were conducted on the 1st day, PST—on the 2nd day, CPAR—on the 1st and 10th day post treatment with the preparations. […] The antiamnesic action (AA) in the CPAR test was calculated using Butler's formula [K. S. Radionova. […] After that, the animals were removed from the experiment by administering a narcotic, followed by decapitation. The brain was extracted and weighed, and the brain weight coefficient (BWC) was calculated. Immediately after extraction, the brain was frozen in liquid nitrogen and used in subsequent biochemical and histochemical studies. Glucose levels in whole arterial (common carotid artery) and venous (venous cerebral sinus) blood were determined by the glucose oxidase test, the difference in the arterial-venous glucose content was calculated (glucose consumption marker). The levels of average weight molecules—the toxic products of cell biodegradation damaged during the disease (nucleoside derivatives, peptoids, glucuronic acid salts, etc.) in the blood serum (AWM) were calculated [A. N. Kovalevsky. Notes on the screening method of determination average weight molecules/A. N. Kovalevsky, O. Ye. Nifantiev//Lab. Science. […] 35-39].

[2] = test system: rat models with Alzheimer's disease; assay: Conditioned passive avoidance reflex (CPAR) test, scopolamine-induced Alzheimer's disease model; settings: for AA less than in the tetrapeptide (LYS) group: donepezil 1 mg/kg; for number of animals who reached the CPAR learning criterium: % of total trained animals, criterium at least 180 sec in light area
Method: as §1, §2, §3, §4

rat models with AD = assay: Porsolt swim test (PST), scopolamine-induced Alzheimer's disease model; settings: AD rats; donepezil 1 mg/kg i.p., tetrapeptide (LYS) 0.1 mg/kg i.n.
Method: as §1, §2, §3, §4

## COc1cc2c(cc1OC)C(=O)C(CC1CCN(Cc3ccccc3)CC1)C2 (centres unmarked) [donepezil, reference compound]
[1]
  % of animals succeeded: 100%
  Escape time: 18.86 ± 3.57 s
[2]; 10th day
  AA less than in the tetrapeptide (LYS) group: 1.9 times
[2]; In 24 hrs., scopolamine + donepezil 1 mg/kg or tetrapeptide (LYS) 0.1 mg/kg i.n.
  Latent period of entry into the dark area of the CPAR device, In 24 hrs.: 93.29 ± 26.11 s
[2]; In 10 days, scopolamine + donepezil 1 mg/kg or tetrapeptide (LYS) 0.1 mg/kg i.n.
  Latent period of entry into the dark area of the CPAR device, In 10 days: 69.43 ± 11.10^ sec.
[2]; Initial, scopolamine + donepezil 1 mg/kg or tetrapeptide (LYS) 0.1 mg/kg i.n.
  Latent period of entry into the dark area of the CPAR device, Initial: 24.00 ± 6.23 s
[2]; first day
  number of animals who reached the CPAR learning criterium: 28.6%
  AA less than in the tetrapeptide (LYS) group: 2.9 times
[2]; tenth day
  number of animals who reached the CPAR learning criterium: goes down to the level of the pathology group
Rat models with AD
  Latent period of immobilization: 69.43 ± 12.64 s
  Number of immobilization acts: 9.29 ± 1.66
